Assay results reported in patent US8034818B2, “Therapeutic uses of derivatives of piperidinyl- and piperazinyl-alkyl carbamates” (Sanofi-Aventis, priority 2004, dated 2011).
Where a name gives a salt, the structure may show the parent alone.

tested on: male OF1 mice; experiment: test of analgesia: abdominal tractions induced with PBQ (phenylbenzoquinone) i.p.; type: in vivo, mouse; details: (a) 1 mg/kg p.o. at 2 hours, PBQ 2 mg/kg i.p.
Protocol: The in vivo activity of the compounds of the invention was evaluated in a test of analgesia.
Thus, the intraperitoneal (i.p.) administration of PBQ (phenylbenzoquinone, 2 mg/kg in 0.9% sodium chloride solution containing 5% ethanol) to male OF1 mice weighing 25 to 30 g, causes abdominal tractions, on average 30 torsions or contractions during the period of 5 to 15 minutes after injection. The test compounds are administered orally or intraperitoneally as a 0.5% suspension in Tween 80, 60 minutes or 120 minutes before the administration of PBQ. Under these conditions, the most powerful compounds of the invention produce a 35% to 70% reduction in the number of tractions induced with PBQ, within a dose range of between 1 and 30 mg/kg.

| Compound | Reduction in the number of tractions (%) |
| --- | --- |
| CNC(=O)COC(=O)NCCC1CCN(c2cc3ccccc3cn2)CC1 [Compound 166, 2-(Methylamino)-2-oxoethyl 2-[1-(3-isoquinolyl)-4-piperidyl]ethylcarbamate] | −62% (a) |

same assay, conditions: (b) 3 mg/kg p.o. at 1 hour, PBQ 2 mg/kg i.p.

| Compound | Reduction in the number of tractions (%) |
| --- | --- |
| CNC(=O)COC(=O)NCCC1CCN(c2cccc(C)n2)CC1 [Compound 47, 2-(Methylamino)-2-oxoethyl 2-[1-(6-methyl-2-pyridyl)-4-piperidyl]ethylcarbamate hydrochloride] | −63% (b) |
| CNC(=O)COC(=O)NCCC1CCN(c2ccc3ccccc3n2)CC1 [Compound 126, 2-(Methylamino)-2-oxoethyl 2-[1-(2-quinolyl)-4-piperidyl]ethylcarbamate] | −43% (b) |

tested on: not given; experiment: not given; details: not given

| Compound | melting point |
| --- | --- |
| CNC(=O)COC(=O)NCCC1CCN(c2ccc3ccccc3n2)CC1 [Compound 126, 2-(Methylamino)-2-oxoethyl 2-[1-(2-quinolyl)-4-piperidyl]ethylcarbamate] | 125 to 128 °C |
| CNC(=O)COC(=O)NCCN1CCN(c2cccc3ccccc23)CC1 (as salt: hydrochloride) [Compound 38, 2-(Methylamino)-2-oxoethyl 2-[4-(1-naphthyl)-1-piperazinyl]ethylcarbamate hydrochloride] | 166 °C |
| CNC(=O)COC(=O)NCCC1CCN(c2cccc(CC(C)C)n2)CC1 [Compound 49, 2-(Methylamino)-2-oxoethyl 2-[1-(6-isobutyl-2-pyridyl)-4-piperidyl]ethylcarbamate] | 97 to 99 °C |
| NC(=O)COC(=O)NCC1CCN(c2cccc(-c3ccccc3)n2)CC1 [Compound 58, 2-Amino-2-oxoethyl 2-[1-(6-phenyl-2-pyridyl)-4-piperidyl]methylcarbamate] | 131 to 132 °C |
| CNC(=O)COC(=O)NCCC1CCN(c2cccc(C)n2)CC1 (as salt: hydrochloride) [Compound 47, 2-(Methylamino)-2-oxoethyl 2-[1-(6-methyl-2-pyridyl)-4-piperidyl]ethylcarbamate hydrochloride] | 95 to 100 °C |
| NC(=O)COC(=O)NCCC1CCN(c2cccc(C(F)(F)F)c2)CC1 [Compound 44, 2-Amino-2-oxoethyl 2-{1-[3-(trifluoromethyl)phenyl]-4-piperidyl}ethylcarbamate] | 140 to 142 °C |

Further lines, results first:

| melting point | Compound |
| --- | --- |
| 158 to 162 °C | CNC(=O)COC(=O)NCCC1CCN(c2ccc3c(Cl)cccc3n2)CC1 [Compound 130, 2-(Methylamino)-2-oxoethyl 2-[1-(5-chloro-2-quinolyl)-4-piperidyl]ethylcarbamate] |
| 208 to 212 °C (dec.) | CNC(=O)COC(=O)NCC1CCN(c2nccc3ccccc23)CC1 (as salt: hydrochloride) [Compound 154, 2-(Methylamino)-2-oxoethyl [1-(1-isoquinolyl)-4-piperidyl]methylcarbamate hydrochloride] |
| 135 to 137 °C | NC(=O)COC(=O)NCCC1CCN(c2ccc3ccccc3n2)CC1 [Compound 127, 2-Amino-2-oxoethyl 2-[1-(2-quinolyl)-4-piperidyl]ethylcarbamate] |
| 205 to 210 °C | CNC(=O)COC(=O)NCCC1CCN(c2cncc3ccccc23)CC1 (as salt: hydrochloride) [Compound 172, 2-(Methylamino)-2-oxoethyl 2-[1-(4-isoquinolyl)-4-piperidyl]ethylcarbamate hydrochloride] |
| 156 to 158 °C | CNC(=O)COC(=O)NCCC1CCN(c2cc3ccccc3cn2)CC1 [Compound 166, 2-(Methylamino)-2-oxoethyl 2-[1-(3-isoquinolyl)-4-piperidyl]ethylcarbamate] |
| 135 to 139 °C | NC(=O)COC(=O)NCCC1CCN(c2nccc3cc(F)ccc23)CC1 [Compound 158, 2-Amino-2-oxoethyl 2-[1-(6-fluoro-1-isoquinolyl)-4-piperidyl]ethylcarbamate] |
| 147 to 149 °C | CNC(=O)COC(=O)NCCC1(F)CCN(c2ccc3ccccc3n2)CC1 [Compound 128, 2-(Methylamino)-2-oxoethyl 2-[4-fluoro-1-(2-quinolyl)-4-piperidyl]ethylcarbamate] |
| 189 to 191 °C | NC(=O)COC(=O)NCCC1CCN(c2ccc3cc(Cl)ccc3n2)CC1 [Compound 137, 2-Amino-2-oxoethyl 2-[1-(6-chloro-2-quinolyl)-4-piperidyl]ethylcarbamate] |
